Target: T1, Sclerostin (Homo sapiens, UniProt Q9BQB4)
T1 construct: host or cells: human embryonic cells (reporter cells)
T1 sequence (Q9BQB4 24-213): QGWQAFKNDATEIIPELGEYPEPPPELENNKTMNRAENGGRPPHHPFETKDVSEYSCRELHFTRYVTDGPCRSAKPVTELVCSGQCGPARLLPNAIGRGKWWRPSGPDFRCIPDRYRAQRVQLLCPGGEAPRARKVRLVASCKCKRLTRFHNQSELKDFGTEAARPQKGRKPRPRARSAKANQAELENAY
Assay: Luciferase Wnt pathway activity assay: inhibition of sclerostin by restoration of Wnt signaling in human cells
Format: cell-based
Protocol: The Y axis represents Relative Light Units (RLU) which represents Wnt pathway signaling. Addition of Wnt (W) activates the Wnt pathway, while addition of Sclerostin (S) inhibits the Wnt pathway. […] Compound concentrations are indicated in μM.
Briefly, cells (e.g., human cells) are treated with a predetermined dose of a candidate compound for a complete dosing schedule.
Concentrations are indicated along the X axis in micromolar values.

For `COc1cc2c(cc1O)C[C@H]1c3c(cc(O)c(OC)c3-2)CCN1C` [Compound 1, (S)-1,10-dimethoxy-6-methyl-5,6,6a,7-tetrahydro-4H-dibenzo[de,g]quinoline-2,9-diol], the IC50 was 5 µM.

From patent US20140023653A1, “BOLDINE DERIVATIVES FOR PROMOTING BONE GROWTH” (OSTEOGENEX, INC., priority 2012, published 2014)
